For one experiment, the system named is diabetic ob/ob mice. As to the kind of experiment: Blood glucose in adult male diabetic ob/ob mice. In kind it is in vivo. Conditions: 10 mg/kg orally at 12-hr intervals, 5 doses, pantothenate-deficient chow, in 30% Captisol; non-diabetic range 120±20 mg/dL. The protocol:
Compound was administered orally at 12-hr intervals for a total of 5 doses starting at T=0 hr. Blood glucose from the tail vein was measured just prior to each administration. Compound was formulated in 30% Captisol (o); 30% Captisol only (•).

For another experiment, the target named is hPanK3 (Homo sapiens, UniProt Q9H999). Description: Inhibition of PanK kinase activity (phosphorylation of pantothenate, purified protein). In kind it is biochemical. Conditions: for Ki: Morrison Ki fit.
Chain of hPanK3 (Q9H999 whole entry): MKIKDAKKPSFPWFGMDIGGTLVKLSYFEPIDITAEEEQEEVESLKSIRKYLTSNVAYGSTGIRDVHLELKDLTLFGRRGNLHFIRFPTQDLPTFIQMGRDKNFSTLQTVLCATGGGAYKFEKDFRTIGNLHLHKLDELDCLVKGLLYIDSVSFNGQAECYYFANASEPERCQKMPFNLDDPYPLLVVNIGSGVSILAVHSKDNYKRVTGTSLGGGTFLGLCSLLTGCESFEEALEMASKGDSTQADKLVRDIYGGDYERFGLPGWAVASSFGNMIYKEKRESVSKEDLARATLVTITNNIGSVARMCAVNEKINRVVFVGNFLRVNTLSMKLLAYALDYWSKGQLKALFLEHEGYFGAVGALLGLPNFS

Bounds are passed on as bounds.

For `CC(C)c1ccc(CC(=O)N2CCN(c3ccc(C#N)nn3)CC2)cc1` [6-(4-(2-(4-isopropylphenyl)acetyl)piperazin-1-yl)pyridazine-3-carbonitrile], the blood glucose level result in the experiment with diabetic ob/ob mice is given as “reduces the blood glucose level to values within the range of non-diabetic mice”.
What is called IC50 is the concentration needed to halve the response being measured. The low end stands for higher potency, the high end for lower potency. `N#Cc1ccc(N2CCN(C(=O)NC3CCCCC3)CC2)nc1` [Compound 19] gave a half-inhibitory concentration (IC50) on hPanK3 of over 10000 nM.
The same measure, in the same setting: then `CC(C)(C)NC(=O)N1CCN(c2ccc(C#N)cn2)CC1` [Compound 20], with over 10000 nM; and `CCCCCCCCNC(=O)N1CCN(c2ccc(C#N)cn2)CC1` [Compound 21], with over 10000 nM.
Same read-out and setting: the figure for `CC(C)NC(=O)N1CCN(c2ccc(C#N)cn2)CC1` [Compound 22] is over 10000 nM.
In turn, `Cc1ccc(CNC(=O)N2CCN(c3ccc(C#N)cn3)CC2)cc1` [Compound 24] showed a half-inhibitory concentration (IC50) on hPanK3 of over 10000 nM.
For `N#Cc1ccc(N2CCN(C(=O)NCc3ccco3)CC2)nc1` [Compound 25], at hPanK3, the IC50 is over 10000 nM.
On the same count and under the same terms, the figure for `CC(C)c1cc(NC(=O)N2CCN(c3ccc(C#N)cn3)CC2)on1` [Compound 27] is over 10000 nM.
In general, Ki refers to the equilibrium dissociation constant of an inhibitor or competing ligand from its target. At hPanK3, `CCC(C)c1ccc(NC(=O)N2CCN(c3ccc(C#N)nn3)CC2)cc1` (centres unmarked) [Compound 66] registered a Ki of 7.8 nM.
Same read-out and setting: then `CC(C)(C)c1ccc(CC(=O)N2CCN(c3ccc(C#N)nn3)CC2)cc1` [Compound 73], with 0.97 nM; and `CC(C)(C)c1ccc(CC(=O)N2CCN(c3ccc(Cl)nn3)CC2)cc1` [Compound 74], with 1.8 nM.
At hPanK3, `CC(C)c1ccc(OC(=O)N2CCN(c3ccc(Cl)nn3)CC2)cc1` [Compound 76] displayed a Ki of 1.8 nM.
Still for that read-out and setting: the figure for `CC(C)(C)c1ccc(C(F)(F)C(=O)N2CCN(c3ccc(C#N)nn3)CC2)cc1` [Compound 77] is 20.8 nM; for `Cc1cc(OC(=O)N2CCN(c3ccc(C#N)nn3)CC2)ccc1C(C)C` [Compound 80] it is 55.7 nM; for `CC(C)c1ccc(CC(=O)N2CCN(c3ccc(C#N)nn3)CC2)nc1` [Compound 82] it is 62.5 nM.
The molecule `CC(C)c1ccc(CC(=O)N2CC[C@@H](Nc3ccc(C#N)nn3)C2)cc1` [Compound 84] yielded an inhibitory constant (Ki) on hPanK3 of 9.1 nM.
Same read-out and setting: then `CC(C)c1ccc(CC(=O)N[C@H]2CCN(c3ccc(C#N)nn3)C2)cc1` [Compound 85], with 7.1 nM; and `CC(C)c1ccc(CC(=O)N[C@@H]2CCN(c3ccc(C#N)nn3)C2)cc1` [Compound 86], with 26.6 nM.
The same measure, in the same setting: the figure for `CC(C)c1ccc(CC(=O)N[C@H]2CN(c3ccc(C#N)nn3)C[C@@H]2O)cc1` [Compound 87] is 12.3 nM; for `CC(C)c1ccc(NC(=O)N[C@H]2CCN(c3ccc(C#N)nn3)C2)cc1` [Compound 88] it is 36.3 nM.
For the molecule `CC(C)c1ccc(CC(=O)NCCNc2ccc(C#N)nn2)cc1` [Compound 90], affinity at hPanK3 was put at a Ki of 28.3 nM.
Still for that read-out and setting: then `CC(C)c1ccc(CC(=O)N[C@@H]2CN(c3ccc(C#N)nn3)C[C@H]2O)cc1` [Compound 91], with 35 nM; and `CC(C)c1ccc(CC(=O)N[C@@H]2CN(c3ccc(C#N)nn3)C[C@@H]2O)cc1` [Compound 92], with 40.8 nM; and `CC(C)c1ccc(CC(=O)N[C@H]2CCN(c3ccc(C#N)nn3)C2)cc1F` [Compound 94], with 1.1 nM.
Same read-out and setting: the figure for `CC(C)c1ccc(CC(=O)N[C@H]2CN(c3ccc(C#N)nn3)C[C@@H]2O)cc1F` [Compound 95] is 51 nM.
Consider `CC(C)c1ccc(CC(=O)N[C@H]2CCN(c3ccc(C#N)nn3)C2)c(F)c1` [Compound 100], for which, at hPanK3, the Ki was 1.5 nM.
On the same count and under the same terms, then `CC(C)c1ccc(CC(=O)N[C@@H]2CN(c3ccc(C#N)nn3)C[C@H]2O)cc1F` [Compound 105], with 44.8 nM; and `CC(C)c1ccc(CC(=O)N[C@H]2CCN(c3ccc(C#N)nn3)C2)cn1` [Compound 106], with 5.9 nM; and `CC(C)c1ccc(CC(=O)N[C@@H]2CN(c3ccc(C#N)nn3)C[C@H]2O)c(F)c1` [Compound 107], with 21.1 nM.
Same read-out and setting: the figure for `CC(C)c1ccc(N(C)C(=O)N2CCN(c3ccc(C#N)nn3)CC2)cc1` [Compound 108] is 14.1 nM; for `CC(C)c1ccc(OC(=O)N2CCN(c3cnc(C#N)cn3)CC2)cc1` [Compound 110] it is 33.7 nM; for `CC(C)c1ccc(NC(=O)N2CCN(c3cnc(Cl)cn3)CC2)cc1` [Compound 113] it is 21 nM.
Same read-out and setting: the figure for `CC(C)c1ccc(CC(=O)N2CCN(c3ncc(Cl)nc3N)CC2)cc1` [Compound 116] is 12.5 nM; for `CC(C)c1ccc(CC(=O)NC2CCN(c3ccc(C#N)nn3)CC2)cc1` [Compound 118] it is 5 nM.
`CC(C)c1ccc(CC(=O)N2CCN(c3ccc(C#N)nn3)CC2)s1` [Compound 119] showed a Ki at hPanK3 of 3.3 nM.
Same read-out and setting: then `CC(C)c1ccc(CC(=O)N2CCN(c3ccc([N+](=O)[O-])nc3)CC2)cc1` [Compound 120], with 0.64 nM; and `CC(C)c1ccc(CC(=O)N2CCN(c3ccc(C#N)nn3)C[C@H]2C)cc1` [Compound 121], with 1.4 nM; and `CC(C)c1ccc(CC(=O)N2CCN(c3cnc(Cl)cn3)CC2)s1` [Compound 122], with 4.1 nM.
Still for that read-out and setting: the figure for `CC(C)c1ccc(CC(=O)N2CCN(c3ccc(C#N)nn3)[C@H](C)C2)cc1` [Compound 123] is 0.13 nM.
Same read-out and setting: the figure for `CC(C)c1ccc(CC(=O)N2CCN(c3ccc(C#N)nn3)C[C@@H]2C)cc1` [Compound 124] is 1.1 nM; for `CC(C)c1ccc(CC(=O)N2CCN(c3ccc(C#N)nn3)[C@@H](C)C2)cc1` [Compound 126] it is 0.09 nM; for `CC(C)c1ccc(CC(=O)N2CCN(c3ccc(C#N)nn3)[C@@H](C)C2)s1` [Compound 128] it is 1.3 nM.
In turn, `CSc1ccc(CC(=O)N2CCN(c3ccc(C#N)nn3)[C@H](C)C2)cc1` [Compound 129] returned an inhibition constant Ki on hPanK3 of 22.4 nM.
On the same count and under the same terms, the figure for `CC(C)c1ccc(CC(=O)N2CCN(c3ccc(C#N)nn3)[C@H](C)C2)cn1` [Compound 131] is 9 nM; for `CC(C)c1ccc(CC(=O)N2CCN(c3ccc(C#N)nn3)[C@@H](C)C2)cn1` [Compound 132] it is 12.6 nM.
For `CC(C)c1ccc(CC(=O)N2CCN(c3ccc(Cl)nn3)[C@@H](C)C2)cn1` [Compound 133], the affinity on hPanK3 corresponds to a Ki of 9.7 nM.
On the same count and under the same terms, then `CC(C)c1ccc(CC(=O)N2CCN(c3ccc(Cl)nn3)[C@H](C)C2)cn1` [Compound 134], with 10.6 nM; and `CSc1cccc(CC(=O)N2CCN(c3ccc(C#N)nn3)[C@H](C)C2)c1` [Compound 135], with 38 nM.
Turning to `CC(C)c1ccc(CC(=O)N2CCN(c3ccc(C#N)nn3)C(C)(C)C2)cc1` [Compound 136], the Ki on hPanK3 is 2.4 nM.
On the same count and under the same terms, the figure for `CC(C)c1ccc(CC(=O)N2C[C@@H](C)N(c3ccc(C#N)nn3)[C@@H](C)C2)cc1` [Compound 137] is 0.27 nM; for `CC(C)c1ccc(OC(=O)N2CCN(c3ccc(C#N)nn3)[C@@H](C)C2)cc1` [Compound 138] it is 7.6 nM.
Same read-out and setting: then `CC(C)c1ccc(OC(=O)N2CCN(c3ccc(C#N)nn3)[C@H](C)C2)cc1` [Compound 139], with 4.7 nM; and `C[C@H]1CN(C(=O)Cc2ccc(C(C)(C)C)cc2)CCN1c1ccc(C#N)nn1` [Compound 140], with 1 nM.
On the same count and under the same terms, the figure for `C[C@@H]1CN(C(=O)Cc2ccc(C(C)(C)C)cc2)CCN1c1ccc(C#N)nn1` [Compound 141] is 1.7 nM; for `CC(c1ccc(CC(=O)N2CCN(c3ccc(C#N)nn3)[C@@H](C)C2)cc1)C(F)(F)F` (some centres unmarked) [Compound 144] it is 2.5 nM.
As to `CC(c1ccc(CC(=O)N2CCN(c3ccc(C#N)nn3)[C@H](C)C2)cc1)C(F)(F)F` (some centres unmarked) [Compound 145], the inhibition constant Ki at hPanK3 stood at 1.5 nM.

(Values after US12552765B2, “Small molecule modulators of pantothenate kinases” (ST. JUDE CHILDREN'S RESEARCH HOSPITAL, INC., priority 2016, dated 2026).)
